According to patent US11673894B2, “Imidazopyrimidines and triazolopyrimidines as A2A / A2B inhibitors” (Incyte Corporation, priority 2018, dated 2023):

Key:
[1] = target: Adenosine A2A receptor (Homo sapiens (Human), UniProt P29274); assay: A2A Tag-lite HTRF Assay; settings: Tag-lite Adenosine A2A labeled cells; A2A Receptor Red antagonist fluorescent ligand 12.5 nM; one-site competitive binding model; read-out: A2A_Ki
Source text: The final concentration of DMSO was 1%.

[2] = target: human adenosine A2B receptor (Homo sapiens (Human), UniProt P29275); assay: Adenosine A2B Receptor Cyclic AMP GS Assay; assay type: cell-based; settings: HEK-293 cells expressing human A2B receptor; agonist NECA at 12 nM; cAMP accumulation (FRET); read-out: A2B_cAMP_EC50
Description: Stably transfected HEK-293 cells expressing the human adenosine A2B receptor (Perkin Elmer) were maintained in MEM culture medium with 10% FBS and 100 μg/ml Geneticin (Life Technologies). 18 to 24 hours prior to assay, geneticin was removed from culture. The cisbio cAMP-GS Dynamic kit utilizing the FRET (Fluorescence Resonance Energy Transfer) technology was used to measure cAMP accumulation in the cells. Compounds of the present disclosure at an appropriate concentration were mixed with 10000 cells/well in white 96 well half area plates (Perkin Elmer) for 30 min at RT gently shaking. Agonist, NECA (R&D Technologies) at 12 nM was added to each well for 60 min at RT gently shaking. Detection reagents, d2-labeled cAMP (acceptor) and anti-cAMP cryptate (donor) were added to each well for 60 min at RT gently shaking. Plates were read on Pherastar (BMG Labtech), fluorescence ratio 665/620 was calculated and EC50 determination was performed by fitting the curve of percent of control versus the log of the compound concentration using GraphPad Prism.

Chain of human adenosine A2B receptor (P29275 whole entry): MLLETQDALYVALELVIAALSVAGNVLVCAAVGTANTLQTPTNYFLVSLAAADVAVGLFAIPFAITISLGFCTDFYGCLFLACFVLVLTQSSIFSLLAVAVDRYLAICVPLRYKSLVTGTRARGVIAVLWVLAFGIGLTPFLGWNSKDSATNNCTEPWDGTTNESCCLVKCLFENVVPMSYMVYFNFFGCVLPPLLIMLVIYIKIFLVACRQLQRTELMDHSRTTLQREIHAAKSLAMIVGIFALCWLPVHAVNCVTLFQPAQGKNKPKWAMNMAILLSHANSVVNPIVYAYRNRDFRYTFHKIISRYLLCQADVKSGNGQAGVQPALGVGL
Chain of Adenosine A2A receptor (P29274 whole entry): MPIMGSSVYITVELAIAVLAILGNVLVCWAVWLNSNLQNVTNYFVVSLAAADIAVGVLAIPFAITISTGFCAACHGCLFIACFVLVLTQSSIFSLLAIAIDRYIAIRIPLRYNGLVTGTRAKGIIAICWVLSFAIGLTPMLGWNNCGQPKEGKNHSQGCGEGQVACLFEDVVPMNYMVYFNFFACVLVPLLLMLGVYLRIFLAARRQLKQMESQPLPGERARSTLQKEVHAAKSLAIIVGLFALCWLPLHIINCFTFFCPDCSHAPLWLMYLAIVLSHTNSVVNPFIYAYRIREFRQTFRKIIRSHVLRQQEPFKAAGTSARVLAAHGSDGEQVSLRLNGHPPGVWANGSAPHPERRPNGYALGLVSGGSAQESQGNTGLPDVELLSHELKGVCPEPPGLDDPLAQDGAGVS

SMILES	Ki [1]	EC50 [2]
CCn1nccc1-c1c(-c2cccc(C#N)c2)nc(N)n2nc(Cc3noc4ccccc34)nc12 [Example 55, 3-(5-Amino-2-(benzo[d]isoxazol-3-ylmethyl)-8-(1-ethyl-1H-pyrazol-5-yl)-[1,2,4]triazolo[1,5-c]pyrimidin-7-yl)benzonitrile]	< 10 nM	< 10 nM
N#Cc1cccc(-c2nc(N)n3nc(Cc4ccccn4)nc3c2-c2cccc3ncccc23)c1 [Example 44, 3-(5-Amino-2-(pyridin-2-ylmethyl)-8-(quinolin-5-yl)-[1,2,4]triazolo[1,5-c]pyrimidin-7-yl)benzonitrile]	< 10 nM	10 to 100 nM
CCNC(=O)c1cn2c(N)nc(-c3cccc(C#N)c3)c(-c3ccncc3)c2n1 [Example 26, 5-Amino-7-(3-cyanophenyl)-N-ethyl-8-(pyridin-4-yl)imidazo[1,2-c]pyrimidine-2-carboxamide]	< 10 nM	< 10 nM
N#Cc1cccc(-c2nc(N)n3nc(C(NCCO)c4ccccc4)nc3c2-c2ccncc2)c1 (stereo not shown) [Example 47, 3-(5-Amino-2-((2-hydroxyethylamino)(phenyl)methyl)-8-(pyridin-4-yl)-[1,2,4]triazolo[1,5-c]pyrimidin-7-yl)benzonitrile]	< 10 nM	< 10 nM
CCNC(=O)c1cn2c(N)nc(-c3cccc(C#N)c3)c(C3CC3)c2n1 [Example 40, 5-Amino-7-(3-cyanophenyl)-8-cyclopropyl-N-ethylimidazo[1,2-c]pyrimidine-2-carboxamide]	10 to 100 nM	> 1000 nM
N#Cc1cccc(-c2nc(N)n3nc(COc4ccccc4C#N)nc3c2-c2ccncn2)c1 [Example 96, 2-((5-Amino-7-(3-cyanophenyl)-8-(pyrimidin-4-yl)-[1,2,4]triazolo[1,5-c]pyrimidin-2-yl)methoxy)benzonitrile]	< 10 nM	< 10 nM
CCNC(=O)c1cn2c(N)nc(-c3cccc(C#N)c3)c(-c3ccnn3C(C)C)c2n1 [Example 36, 5-Amino-7-(3-cyanophenyl)-N-ethyl-8-(1-isopropyl-1H-pyrazol-5-yl)imidazo[1,2-c]pyrimidine-2-carboxamide]	< 10 nM	10 to 100 nM
N#Cc1cccc(-c2nc(N)n3nc(Cc4c(F)cccc4CN4CCC(C(=O)O)CC4)nc3c2-c2ccncn2)c1 [Example 73, 1-(2-((5-Amino-7-(3-cyanophenyl)-8-(pyrimidin-4-yl)-[1,2,4]triazolo[1,5-c]pyrimidin-2-yl)methyl)-3-fluorobenzyl)piperidine-4-carboxylic acid]	< 10 nM	10 to 100 nM
CCn1nccc1-c1c(-c2cccc(C#N)c2)nc(N)n2nc(Cc3ncccc3OC)nc12 [Example 53, 3-(5-Amino-8-(1-ethyl-1H-pyrazol-5-yl)-2-((3-methoxypyridin-2-yl)methyl)-[1,2,4]triazolo[1,5-c]pyrimidin-7-yl)benzonitrile]	< 10 nM	10 to 100 nM
N#Cc1cccc(-c2nc(N)n3nc([C@@H](O)c4ccccc4)nc3c2-c2ccncn2)c1 [Example 64, (S)-3-(5-amino-2-(hydroxy(phenyl)methyl)-8-(pyrimidin-4-yl)-[1,2,4]triazolo[1,5-c]pyrimidin-7-yl)benzonitrile]	< 10 nM	< 10 nM
N#Cc1cccc(-c2nc(N)n3nc(Cc4ccccn4)nc3c2-c2ncncc2F)c1 [Example 46, 3-(5-Amino-8-(5-fluoropyrimidin-4-yl)-2-(pyridin-2-ylmethyl)-[1,2,4]triazolo[1,5-c]pyrimidin-7-yl)benzonitrile]	< 10 nM	< 10 nM
N#Cc1cccc(-c2nc(N)n3nc(Cc4ccccc4F)nc3c2-c2ccncn2)c1 [Example 49, 3-(5-Amino-2-(2-fluorobenzyl)-8-(pyrimidin-4-yl)-[1,2,4]triazolo[1,5-c]pyrimidin-7-yl)benzonitrile]	< 10 nM	< 10 nM
CCNC(=O)c1nc2c(-c3cc(C)nc(C)c3)c(-c3ccccc3)nc(N)n2c1Br [Example 20, 5-Amino-3-bromo-8-(2,6-dimethylpyridin-4-yl)-N-ethyl-7-phenylimidazo[1,2-c]pyrimidine-2-carboxamide]	< 10 nM	100 to 1000 nM
CCCn1nccc1-c1c(-c2cccc(C#N)c2)nc(N)n2cc(C(=O)NCC)nc12 [Example 37, 5-Amino-7-(3-cyanophenyl)-N-ethyl-8-(1-propyl-1H-pyrazol-5-yl)imidazo[1,2-c]pyrimidine-2-carboxamide]	< 10 nM	< 10 nM
N#Cc1cccc(-c2nc(N)n3nc(Cc4c(F)cccc4CN4CCCS4(=O)=O)nc3c2-c2ccncn2)c1 [Example 86, 3-(5-Amino-2-(2-((1,1-dioxidoisothiazolidin-2-yl)methyl)-6-fluorobenzyl)-8-(pyrimidin-4-yl)-[1,2,4]triazolo[1,5-c]pyrimidin-7-yl)benzonitrile]	< 10 nM	< 10 nM
CCNC(=O)c1cn2c(N)nc(-c3ccccc3)c(C3=CCN(C(N)=O)CC3)c2n1 [Example 15, 5-Amino-8-(1-carbamoyl-1,2,3,6-tetrahydropyridin-4-yl)-N-ethyl-7-phenylimidazo[1,2-c]pyrimidine-2-carboxamide]	< 10 nM	100 to 1000 nM
Nc1nc(-c2ccncc2)c(-c2ccncc2)c2nccn12 [Example 5, 7,8-Di(pyridin-4-yl)imidazo[1,2-c]pyrimidin-5-amine]	10 to 100 nM	10 to 100 nM
Cc1nc(CO)c(-c2c(-c3cccc(C#N)c3)nc(N)n3nc(Cc4ccccn4)nc23)o1 [Example 62, 3-(5-Amino-8-(4-(hydroxymethyl)-2-methyloxazol-5-yl)-2-(pyridin-2-ylmethyl)-[1,2,4]triazolo[1,5-c]pyrimidin-7-yl)benzonitrile]	< 10 nM	< 10 nM
CCNC(=O)c1cn2c(N)nc(-c3cccc(C#N)c3)c(-c3ccnc4c3OCCO4)c2n1 [Example 39, 5-Amino-7-(3-cyanophenyl)-8-(2,3-dihydro-[1,4]dioxino[2,3-b]pyridin-8-yl)-N-ethylimidazo[1,2-c]pyrimidine-2-carboxamide]	< 10 nM	10 to 100 nM
Cc1ncoc1-c1c(-c2cccc(C#N)c2)nc(N)n2nc(Cc3ncccc3CO)nc12 [Example 91, 3-(5-Amino-2-((3-(hydroxymethyl)pyridin-2-yl)methyl)-8-(4-methyloxazol-5-yl)-[1,2,4]triazolo[1,5-c]pyrimidin-7-yl)benzonitrile]	< 10 nM	< 10 nM
CCn1cc(-c2c(-c3cccc(C#N)c3)nc(N)n3cc(C(=O)N4CC(O)C4)nc23)ccc1=O [Example 24, 3-(5-Amino-8-(1-ethyl-6-oxo-1,6-dihydropyridin-3-yl)-2-(3-hydroxyazetidine-1-carbonyl)imidazo[1,2-c]pyrimidin-7-yl)benzonitrile]	< 10 nM	< 10 nM
N#Cc1cccc(-c2nc(N)n3nc(Cc4ccccn4)nc3c2-c2ccncn2)c1 [Example 41, 3-(5-Amino-2-(pyridin-2-ylmethyl)-8-(pyrimidin-4-yl)-[1,2,4]triazolo[1,5-c]pyrimidin-7-yl)benzonitrile]	< 10 nM	< 10 nM
Cc1cccc(Cc2nc3c(-c4ccncn4)c(-c4cccc(C#N)c4)nc(N)n3n2)n1 [Example 51, 3-(5-Amino-2-((6-methylpyridin-2-yl)methyl)-8-(pyrimidin-4-yl)-[1,2,4]triazolo[1,5-c]pyrimidin-7-yl)benzonitrile]	< 10 nM	10 to 100 nM
